Assay results published in paper PMC3677765 (Forensic science international, 2012).

Columns and labels:
[1] = Blood concentrations in mice after inhalation of "Magic Gold" smoke; assay type: in vivo, C57BL6 mice
[2] = Brain concentrations in mice after inhalation of "Magic Gold" smoke; assay type: in vivo, C57BL6 mice
[3] = next specimen collected 18 h later (after the 6 h sample); cited from earlier work
[4] = positive samples among 80 subjects (JWH-018 in 9, JWH-073 in 6); cited from earlier work
Post-preparative = assay type: physicochemical; settings: extracted samples stored in the auto-sampler 72 h at room temperature

Compound	Detection in blood samples ([1]; 20 min and 20 h after exposure)	Detection in brain samples ([2]; 20 min and 20 h after exposure)	Serum detection [3]	Serum concentration (mean) [4] [ng/mL]	JWH-073 blood concentration higher than JWH-018 (mean increase) ([1]; 20 min after exposure) [%]	JWH-073 brain concentration higher than JWH-018 (mean increase) ([2]; 20 min after exposure) [%]	Brain concentration (range) ([2]; 20 h post exposure, five mice)	Degradation (auto-sampler stability) (Post-preparative)
CCCCCn1cc(C(=O)c2ccc(Cl)c3ccccc23)c2ccccc21 [JWH-398, 4-chloronaphthalen-1-yl-(1-penty-lindolin-3-yl)methanone]	not detected	not detected	–	–	–	–	–	–
CCCCCn1cc(C(=O)c2cccc3ccccc23)c2ccccc21 [JWH-018, Naphthalen-1-yl-(1-pentylindol-3-yl)methanone]	–	–	undetectable	1.84	–	–	–	–
CCCCn1cc(C(=O)c2cccc3ccccc23)c2ccccc21 [JWH-073, Naphthalen-1-yl-(1-butylindol-3-yl)methanone]	–	–	–	0.42	53	84	not detected	approximately 20%
